Among the data in PMC4321988, “Engineering of Helicobacter pylori L-Asparaginase: Characterization of Two Functionally Distinct Groups of Mutants” (PLoS ONE, 2015) are Km and stoichiometry N values, retold here.

The target of experiment [1] is T1, HpASNase (Helicobacter pylori CCUG 17874 type II L-asparaginase) (Helicobacter pylori, UniProt O25424).
T1 construct: gene ansA; recombinant, E. coli BL21(DE3) pLysS, plasmid pDC1 (pET101 D-TOPO derivative), His-tag kept (given as N-terminal), 37 kDa band, tetramer
T1 sequence (O25424 whole entry): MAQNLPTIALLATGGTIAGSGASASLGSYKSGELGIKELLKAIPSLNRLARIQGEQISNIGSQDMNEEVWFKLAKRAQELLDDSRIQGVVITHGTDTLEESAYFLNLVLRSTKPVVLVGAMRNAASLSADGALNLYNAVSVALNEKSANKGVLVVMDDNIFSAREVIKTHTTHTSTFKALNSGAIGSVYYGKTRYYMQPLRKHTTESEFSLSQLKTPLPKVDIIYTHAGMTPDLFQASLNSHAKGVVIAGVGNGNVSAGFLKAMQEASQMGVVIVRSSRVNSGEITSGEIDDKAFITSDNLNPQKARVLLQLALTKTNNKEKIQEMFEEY
Put plainly: glutamate dehydrogenase-coupled NADH assay, […] nm. The experiment is classed as biochemical. The following applies: 50 mM HEPES pH 7.5, 37°C.

The target in experiment [2] is Helicobacter pylori CCUG 17874 type II L-asparaginase T16D mutant (Helicobacter pylori CCUG 17874). Put plainly: SEC; analytical gel filtration of the purified mutant; data not shown; conditions not given. On the technique in general: In gel filtration, larger molecules generally elute earlier.
Experiment [3] deals with Helicobacter pylori CCUG 17874 type II L-asparaginase T95E mutant (Helicobacter pylori CCUG 17874). The description is as above.

Where two headings read alike, the source gives them in different places.

`NC(=O)C[C@H](N)C(=O)O` [L-asparagine]: the Km in experiment [1] (read-out: L-asparagine / S0.5, nH 1.0) was 0.29 ± 0.03 mM.

Turning to `NC(=O)CC[C@H](N)C(=O)O` [L-glutamine], the Km in experiment [1] (read-out: L-glutamine / S0.5, nH 2.0) was 46.4 ± 4.02 mM.

In general, stoichiometry N refers to a count of units in the complex or per binding partner. “Helicobacter pylori CCUG 17874 type II L-asparaginase T16D mutant (enzyme)”: in experiment [2], the stoichiometry N stood at 4.

In the case of “Helicobacter pylori CCUG 17874 type II L-asparaginase T95E mutant (enzyme)”, the stoichiometry N in experiment [3] stood at 4.
